6 compounds from PubChem BioAssay (NCI) can be followed below.

Some test systems named below: RXF 393 renal; U251 CNS; SF-268 CNS; RPMI-8226 leukemia; NCI-H460 lung; UACC-62 melanoma; HCT-15 colon; NCI-H226 lung; MOLT-4 leukemia; OVCAR-5 ovarian.
Assay in all cases: DTP human tumour cell line panel, 48 h

SMILES strings stand for the structures.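 Protocol summary: plate cells (96-well), add compound at 5 concentrations, incubate 48 h, interpolate endpoints linearly. GI50 marks 50% less growth. TGI is the concentration that stops growth completely.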

For the compound `O=C(CCN1CCCCC1)N1CCc2c([nH]c3ccccc23)C1c1cccnc1` (stereo not given), the TGI with RXF 393 renal is 81.5 µM; with U251 CNS, greater than 100 µM; with SF-268 CNS, greater than 87.9 µM; with RPMI-8226 leukemia, greater than 100 µM; in the assay on NCI-H460 lung, greater than 100 µM; in the assay with UACC-62 melanoma, 42.2 µM. Besides, the TGI is greater than 100 µM with HCT-15 colon, greater than 100 µM with NCI-H226 lung, greater than 100 µM in the assay with MOLT-4 leukemia and greater than 92.9 µM in the assay on OVCAR-5 ovarian.
For `Cc1cc(Nc2cc(N3CCN(C)CC3)nc(/C=C/c3ccccc3)n2)n[nH]1`, the GI50 with RXF 393 renal was 246 nM; with U251 CNS, 883 nM; in the assay with SF-268 CNS, 845 nM; in the assay with RPMI-8226 leukemia it was 1690 nM; with NCI-H460 lung, 290 nM; in the assay on UACC-62 melanoma, 1070 nM. Moreover, the GI50 was 326 nM with HCT-15 colon, 1.29 µM with NCI-H226 lung, 186 nM in the assay with MOLT-4 leukemia and 866 nM in the assay with OVCAR-5 ovarian. Moreover, the TGI in the assay on RXF 393 renal was 1.04 µM; in the assay on U251 CNS, greater than 6.76 µM; in the assay with SF-268 CNS, greater than 4.08 µM; with RPMI-8226 leukemia, greater than 3.14 µM; in the assay with NCI-H460 lung it was greater than 5.52 µM; with UACC-62 melanoma, greater than 3.51 µM. The TGI with HCT-15 colon is greater than 10 µM; in the assay on NCI-H226 lung, greater than 9.46 µM; in the assay with MOLT-4 leukemia, greater than 10 µM; in the assay on OVCAR-5 ovarian, greater than 9.04 µM.
Regarding `Cc1cn(Cc2ccc(C34CC5CC(CC(C5)C3)C4)c(O)c2)c(=O)[nH]c1=O`, the GI50 in the assay with RXF 393 renal is 1820 nM; in the assay with U251 CNS, 11900 nM; in the assay on SF-268 CNS it was 12700 nM; with RPMI-8226 leukemia, 1790 nM; in the assay with NCI-H460 lung, 12600 nM; in the assay on UACC-62 melanoma it was 7340 nM. In addition, the GI50 with HCT-15 colon was 7990 nM; in the assay with NCI-H226 lung it was 15.4 µM; in the assay on MOLT-4 leukemia, 7500 nM; with OVCAR-5 ovarian, 16100 nM. Moreover, the TGI was 7.2 µM with RXF 393 renal; 24.8 µM in the assay with U251 CNS; 41.8 µM in the assay with SF-268 CNS; 21 µM in the assay with RPMI-8226 leukemia; 42.3 µM with NCI-H460 lung; 20.4 µM with UACC-62 melanoma. In addition, the TGI was 20.5 µM with HCT-15 colon, 29.9 µM in the assay on NCI-H226 lung, 27.5 µM in the assay on MOLT-4 leukemia and 29.8 µM in the assay with OVCAR-5 ovarian.
For the compound `Cc1cc(-c2cc(O)ccc2Cl)cc2nnc(Nc3ccc(OCCN4CCCC4)cc3)nc12`, the GI50 in the assay on RXF 393 renal is 1200 nM; with U251 CNS, 194 nM; in the assay on SF-268 CNS, 1990 nM; in the assay with RPMI-8226 leukemia it was 207 nM; in the assay on NCI-H460 lung, 579 nM; with UACC-62 melanoma, 1700 nM. Besides, the 50% growth inhibitory concentration (GI50) was 183 nM with HCT-15 colon, 4.71 µM in the assay on NCI-H226 lung, 251 nM in the assay on MOLT-4 leukemia and 1650 nM in the assay with OVCAR-5 ovarian. For the same compound, the TGI turned out to be 2.61 µM with RXF 393 renal; 0.372 µM with U251 CNS; 3.91 µM in the assay on SF-268 CNS; 0.442 µM in the assay with RPMI-8226 leukemia; 1.12 µM in the assay with NCI-H460 lung; 3.33 µM with UACC-62 melanoma. The TGI came out at 0.36 µM in the assay on HCT-15 colon, 7.12 µM with NCI-H226 lung, 0.634 µM in the assay on MOLT-4 leukemia and 3.14 µM in the assay with OVCAR-5 ovarian.
On to `CC(=O)N1N=C(c2ccc(Nc3nc(Nc4ccc(F)cc4)nc(Nc4ccc(F)cc4)n3)cc2)CC1c1ccc(N(C)C)cc1` (stereo not given), for which the GI50 in the assay on RXF 393 renal is 1560 nM; in the assay on U251 CNS it was 12600 nM; in the assay on SF-268 CNS it was 12800 nM; in the assay with RPMI-8226 leukemia it was 1770 nM; in the assay on NCI-H460 lung it was 4900 nM; in the assay with UACC-62 melanoma it was 2950 nM. The GI50 is 2410 nM in the assay with HCT-15 colon, 3.29 µM with NCI-H226 lung, 1570 nM in the assay on MOLT-4 leukemia and 29500 nM in the assay with OVCAR-5 ovarian. In addition, the TGI with RXF 393 renal amounted to 5.6 µM; in the assay with U251 CNS, 25.2 µM; in the assay with SF-268 CNS, 43.3 µM; with RPMI-8226 leukemia it was 7.57 µM; in the assay on NCI-H460 lung, 17 µM; with UACC-62 melanoma, 12.3 µM. Also, the TGI is 7.43 µM in the assay with HCT-15 colon, 14.9 µM with NCI-H226 lung, 5.7 µM with MOLT-4 leukemia and greater than 100 µM in the assay on OVCAR-5 ovarian.
On to `CC(=O)C1=C(O)C=C2Oc3c(C(=O)/C=C/c4cc(Cl)cc(Cl)c4)c(O)c(C)c(O)c3[C@]2(C)C1=O`, for which the GI50 was 541 nM with RXF 393 renal; 410 nM in the assay with U251 CNS; 670 nM in the assay with SF-268 CNS; 452 nM with RPMI-8226 leukemia; 528 nM with NCI-H460 lung; 434 nM in the assay on UACC-62 melanoma. Also, the GI50 is 539 nM in the assay on HCT-15 colon, 1.21 µM in the assay with NCI-H226 lung, 409 nM in the assay with MOLT-4 leukemia and 720 nM in the assay on OVCAR-5 ovarian. The TGI was 1.62 µM with RXF 393 renal; 1.06 µM in the assay with U251 CNS; 3.38 µM in the assay on SF-268 CNS; 1.14 µM with RPMI-8226 leukemia; 1.77 µM in the assay with NCI-H460 lung; 1.62 µM in the assay with UACC-62 melanoma. The TGI in the assay on HCT-15 colon amounted to 2.54 µM; in the assay with NCI-H226 lung, 5.49 µM; in the assay with MOLT-4 leukemia it was 1.33 µM; with OVCAR-5 ovarian, 8.57 µM.
